41 compounds from ChEMBL document CHEMBL1153777, “Substituted benzothiadizine inhibitors of Hepatitis C virus polymerase” (Bioorg Med Chem Lett, 2009) can be followed below.

The subject of series [1] is Hepatitis C virus. Description: Antiviral activity against HCV 1b after 72 hrs by replicon assay. The class given is functional, organism-based, Hepacivirus hominis. As to conditions: genotype 1b. A general note: Replicon systems follow genome replication, usually without infectious particles.
Series [2] concerns Hepatitis C virus. Description: Inhibition of HCV1b Cdelta-21-truncated NS5B by enzymatic assay. The class given is functional, Hepatitis C virus subtype 1b.
Series [3] has as its system Hepatitis C virus. Description: Antiviral activity against HCV 1b after 72 hrs by replicon assay in presence of HSA and AAG. As to conditions: genotype 1b. The class given is functional, organism-based, Hepacivirus hominis.
Another series deals with Cytochrome P450 2C9 (Homo sapiens, UniProt P11712). The series can be described thus: Inhibition of CYP2C9. The class given is ADME.
Sequence of Cytochrome P450 2C9 (P11712 whole entry): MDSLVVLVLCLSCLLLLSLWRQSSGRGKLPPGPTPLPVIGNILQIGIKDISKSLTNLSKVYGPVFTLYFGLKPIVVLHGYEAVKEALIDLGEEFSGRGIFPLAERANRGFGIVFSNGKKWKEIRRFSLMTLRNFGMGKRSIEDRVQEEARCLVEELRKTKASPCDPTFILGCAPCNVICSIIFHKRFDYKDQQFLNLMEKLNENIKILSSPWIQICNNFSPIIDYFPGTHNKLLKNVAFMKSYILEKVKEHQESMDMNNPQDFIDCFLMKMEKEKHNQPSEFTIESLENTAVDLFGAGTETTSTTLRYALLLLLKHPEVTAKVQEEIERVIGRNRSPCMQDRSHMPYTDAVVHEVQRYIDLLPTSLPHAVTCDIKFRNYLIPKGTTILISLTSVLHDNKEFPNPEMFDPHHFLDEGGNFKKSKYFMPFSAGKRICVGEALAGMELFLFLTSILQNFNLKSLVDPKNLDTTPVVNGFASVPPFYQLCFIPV
A short description of series [4]: Half life in rat at 4 mg/kg, po and 4 mg/kg, iv. The class given is ADME, organism-based. The note with it: in vivo.
Series [5] can be described thus: Bioavailability in rat at 4 mg/kg, po and 4 mg/kg, iv. The note with it: in vivo. The class given is ADME, organism-based.
For a further series, the species on record is Homo sapiens. Description: Protein binding in human plasma by equilibrium dialysis. The note with it: read-out: PPB (converted). (In general: Equilibrium dialysis compares concentrations on both sides of a semipermeable membrane.)

One may read the IC50 as the concentration at which inhibition is half-maximal. Broadly, the half-life is how long it takes for the measured level to halve. High values mean slow decline, low ones rapid decline. For orientation: bioavailability means the share of a dose that reaches the circulation, judged against a reference dose that is usually intravenous. A high value points to much systemic uptake.

For the compound `O=C(O)COc1ccc2c(c1)S(=O)(=O)N=C(c1c(O)c3cc(F)ccc3n(CCC3CC3)c1=O)N2`, the IC50 is 2300 nM in the series on Hepatitis C virus [1] and < 5 nM in the series on Hepatitis C virus [2].

On to `CC(C)CCn1c(=O)c(C2=NS(=O)(=O)c3cc(CC(N)=O)ccc3N2)c(O)c2cc(F)ccc21`, for which the figures for the half-maximal inhibitory concentration (IC50) in the series on Hepatitis C virus [3], with Hepatitis C virus [1] and in the series with Hepatitis C virus [2] were 3.1 µM, 13 nM and 18 nM, respectively.

Take `CC(C)CCn1c(=O)c(C2=NS(=O)(=O)c3cc(CCN(C)C)ccc3N2)c(O)c2ccccc21`: the concentration for half-maximal inhibition (IC50) with Hepatitis C virus [2] came to 685 nM.

For `O=c1c(C2=NS(=O)(=O)c3cc(OCn4cnnn4)ccc3N2)c(O)c2cc(F)ccc2n1CCC1CC1`, the values for the IC50 with Hepatitis C virus [1] and in the series on Hepatitis C virus [2] were 2000 nM and 6 nM, respectively.

`NC(=O)CCc1ccc2c(c1)S(=O)(=O)N=C(c1c(O)c3cc(F)ccc3n(CCC3CC3)c1=O)N2`: the IC50 in the series with Hepatitis C virus [3] is > 50 µM; in the series on Hepatitis C virus [1] it was 208 nM; in the series with Hepatitis C virus [2], 5 nM.

Consider `N#CCOc1ccc2c(c1)S(=O)(=O)N=C(c1c(O)c3cc(F)ccc3n(CCC3CC3)c1=O)N2`, for which the IC50 in the series on Hepatitis C virus [3] was 2.39 µM; with Hepatitis C virus [1], 8 nM; in the series on Hepatitis C virus [2], < 5 nM.

`CC(C)CCn1c(=O)c(C2=NS(=O)(=O)c3cc(N(C)C)ccc3N2)c(O)c2ccccc21`: the IC50 with Hepatitis C virus [1] is 1250 nM; in the series on Hepatitis C virus [2], 142 nM.

As for `C[C@H](Oc1ccc2c(c1)S(=O)(=O)N=C(c1c(O)c3cc(F)ccc3n(CCC3CC3)c1=O)N2)C(N)=O`, the half-maximal inhibitory concentration (IC50) with Hepatitis C virus [3] is 50 µM; in the series on Hepatitis C virus [1] it was 4 nM; with Hepatitis C virus [2] it was 12 nM.

Regarding `COc1ccc2c(c1)S(=O)(=O)N=C(c1c(O)c3cc(F)ccc3n(CCC3CC3)c1=O)N2`, the 50% inhibitory concentration (IC50) with Hepatitis C virus [3] was > 50 µM; in the series with Hepatitis C virus [1], 342 nM; with Hepatitis C virus [2], 24 nM.

`CC(C)CCn1c(=O)c(C2=NS(=O)(=O)c3cc(OCC#N)ccc3N2)c(O)c2ccccc21`: the values for the IC50 in the series with Hepatitis C virus [1] and in the series on Hepatitis C virus [2] were 81 nM and 7 nM, respectively.

Take `NC(=O)COc1ccc2c(c1)S(=O)(=O)NC(c1c(O)c3cc(F)ccc3n(CCC3CC3)c1=O)=N2`: the IC50 against Cytochrome P450 2C9 was 5400 nM; in the series on Hepatitis C virus [3] it was 1.48 µM; with Hepatitis C virus [1], 2 nM; in the series on Hepatitis C virus [2], < 5 nM. Moreover, the half-life in series [4] is 60 min. In series [5], the bioavailability is 33%. In the series filed under Homo sapiens, the fraction unbound is 0.001.

Take `CC(C)CCn1c(=O)c(C2=NS(=O)(=O)c3cc(CCN)ccc3N2)c(O)c2ccccc21`: the IC50 with Hepatitis C virus [1] turned out to be 568 nM; in the series on Hepatitis C virus [2], 142 nM.

Turning to `CC(C)CCn1c(=O)c(C2=NS(=O)(=O)c3cc(Br)ccc3N2)c(O)c2ccccc21`, the 50% inhibitory concentration (IC50) in the series on Hepatitis C virus [1] turned out to be 5140 nM; in the series on Hepatitis C virus [2], 173 nM.

For `CC(C)CCn1c(=O)c(C2=NS(=O)(=O)c3cc(CC(=O)O)ccc3N2)c(O)c2ccccc21`, the half-inhibitory concentration (IC50) is 1600 nM in the series with Hepatitis C virus [1] and 8 nM in the series with Hepatitis C virus [2].

In the case of `CC(C)CCn1c(=O)c(C2=NS(=O)(=O)c3cc(C(=O)O)ccc3N2)c(O)c2ccccc21`, the half-maximal inhibitory concentration (IC50) in the series with Hepatitis C virus [1] was > 20000 nM; with Hepatitis C virus [2], 45 nM.

Regarding `CC(C)CCn1c(=O)c(C2=NS(=O)(=O)c3cc(I)ccc3N2)c(O)c2ccccc21`, the IC50 in the series on Hepatitis C virus [2] was > 10000 nM.

Consider `CC(C)CCn1c(=O)c(C2=NS(=O)(=O)c3cc(C(=O)N(C)C)ccc3N2)c(O)c2ccccc21`, for which the half-inhibitory concentration (IC50) in the series with Hepatitis C virus [1] is > 20000 nM; with Hepatitis C virus [2], 102 nM.

Turning to `NC(=O)/C=C/c1ccc2c(c1)S(=O)(=O)N=C(c1c(O)c3cc(F)ccc3n(CCC3CC3)c1=O)N2`, the values for the IC50 in the series with Hepatitis C virus [3], in the series on Hepatitis C virus [1] and in the series on Hepatitis C virus [2] were 50 µM, 39 nM and 202 nM, respectively.

Consider `O=c1c(C2=Nc3ccccc3S(=O)(=O)N2)c(O)c2cc(F)ccc2n1CCC1CC1`, for which the IC50 was found to be 840 nM against Cytochrome P450 2C9, 24.5 µM with Hepatitis C virus [3] and 38 nM with Hepatitis C virus [1]. The compound further had a half-life in series [4] of 180 min. Moreover, the bioavailability in series [5] amounted to 44%.

With `CC(C)CCn1c(=O)c(C2=NS(=O)(=O)c3cc(N)ccc3N2)c(O)c2ccccc21`, the concentration for half-maximal inhibition (IC50) in the series on Hepatitis C virus [3] is 45 µM; in the series with Hepatitis C virus [1], 218 nM; with Hepatitis C virus [2], 13 nM.

For the compound `CC(C)CCn1c(=O)c(C2=NS(=O)(=O)c3cc(CC#N)ccc3N2)c(O)c2cc(F)ccc21`, the IC50 worked out at 8 µM with Hepatitis C virus [3], 29 nM in the series on Hepatitis C virus [1] and 5 nM with Hepatitis C virus [2].

On to `CN(C)C(=O)COc1ccc2c(c1)S(=O)(=O)N=C(c1c(O)c3cc(F)ccc3n(CCC3CC3)c1=O)N2`, for which the IC50 in the series with Hepatitis C virus [1] is 211 nM; in the series with Hepatitis C virus [2] it was 12 nM.

For the compound `CC(C)CCn1c(=O)c(C2=NS(=O)(=O)c3cc(CC(N)=O)ccc3N2)c(O)c2ccccc21`, the concentration for half-maximal inhibition (IC50) was 2.65 µM with Hepatitis C virus [3], 15 nM in the series with Hepatitis C virus [1] and 6 nM with Hepatitis C virus [2].

In the case of `CC(C)CCn1c(=O)c(C2=NS(=O)(=O)c3cc(C(N)=O)ccc3N2)c(O)c2ccccc21`, the half-maximal inhibitory concentration (IC50) is 383 nM in the series on Hepatitis C virus [1] and 6 nM in the series on Hepatitis C virus [2].

For `Cc1ccc2c(c1)S(=O)(=O)N=C(c1c(O)c3ccccc3n(CCC(C)C)c1=O)N2`, the values for the concentration for half-maximal inhibition (IC50) in the series with Hepatitis C virus [1] and with Hepatitis C virus [2] were 1780 nM and 50 nM, respectively.

Regarding `CC(C)CCn1c(=O)c(C2=NS(=O)(=O)c3cc(Cl)ccc3N2)c(O)c2ccccc21`, the values for the IC50 in the series on Hepatitis C virus [3], with Hepatitis C virus [1] and in the series on Hepatitis C virus [2] were > 50 µM, 2320 nM and 76 nM, respectively.

For `O=c1c(C2=NS(=O)(=O)c3cc(CO)ccc3N2)c(O)c2cc(F)ccc2n1CCC1CC1`, the half-maximal inhibitory concentration (IC50) in the series with Hepatitis C virus [1] was found to be 233 nM; with Hepatitis C virus [2], 17 nM.

On to `O=c1c(C2=NS(=O)(=O)c3cc(O)ccc3N2)c(O)c2cc(F)ccc2n1CCC1CC1`, for which the IC50 in the series with Hepatitis C virus [3] is 50 µM; in the series with Hepatitis C virus [1], 57 nM; with Hepatitis C virus [2], < 5 nM.

Regarding `CC(C)(Oc1ccc2c(c1)S(=O)(=O)N=C(c1c(O)c3cc(F)ccc3n(CCC3CC3)c1=O)N2)C(N)=O`, the concentration for half-maximal inhibition (IC50) in the series with Hepatitis C virus [3] was found to be 5.36 µM; with Hepatitis C virus [1], 272 nM; in the series with Hepatitis C virus [2] it was 9 nM.

Regarding `CC(=O)c1ccc2c(c1)S(=O)(=O)N=C(c1c(O)c3ccccc3n(CCC(C)C)c1=O)N2`, the concentration for half-maximal inhibition (IC50) in the series on Hepatitis C virus [1] worked out at 5200 nM; with Hepatitis C virus [2], 127 nM.

Take `CC(C)CCn1c(=O)c(C2=NS(=O)(=O)c3cc(C#N)ccc3N2)c(O)c2ccccc21`: the IC50 in the series on Hepatitis C virus [1] was found to be 486 nM; in the series with Hepatitis C virus [2] it was 57 nM.

With `CC(C)CCn1c(=O)c(C2=NS(=O)(=O)c3cc(O)ccc3N2)c(O)c2ccccc21`, the concentration for half-maximal inhibition (IC50) is > 20000 nM in the series with Hepatitis C virus [1] and 30 nM in the series with Hepatitis C virus [2].

With `COC(=O)c1ccc2c(c1)S(=O)(=O)N=C(c1c(O)c3ccccc3n(CCC(C)C)c1=O)N2`, the figures for the IC50 in the series with Hepatitis C virus [1] and in the series with Hepatitis C virus [2] were 2620 nM and 65 nM, respectively.

Take `CC(C)CCn1c(=O)c(C2=NS(=O)(=O)c3cc(F)ccc3N2)c(O)c2ccccc21`: the figures for the IC50 with Hepatitis C virus [1] and with Hepatitis C virus [2] were 334 nM and 26 nM, respectively.

Consider `NC(=O)OCc1ccc2c(c1)S(=O)(=O)N=C(c1c(O)c3cc(F)ccc3n(CCC3CC3)c1=O)N2`, for which the 50% inhibitory concentration (IC50) worked out at 48 nM in the series on Hepatitis C virus [1] and 36 nM with Hepatitis C virus [2].

In the case of `C[C@@H](Oc1ccc2c(c1)S(=O)(=O)N=C(c1c(O)c3cc(F)ccc3n(CCC3CC3)c1=O)N2)C(N)=O`, the half-inhibitory concentration (IC50) against Cytochrome P450 2C9 was 1700 nM; in the series on Hepatitis C virus [3], 1.02 µM; in the series on Hepatitis C virus [1], 3 nM; in the series with Hepatitis C virus [2], < 5 nM. In series [4], this compound gave a half-life of 42 min. Besides, the bioavailability in series [5] was 35%. Also, the fraction unbound in the series filed under Homo sapiens is 0.002.

`CNC(=O)COc1ccc2c(c1)S(=O)(=O)N=C(c1c(O)c3cc(F)ccc3n(CCC3CC3)c1=O)N2`: the IC50 in the series on Hepatitis C virus [3] was 4.74 µM; with Hepatitis C virus [1], 9 nM; in the series on Hepatitis C virus [2], < 5 nM.

With `CC(C)(Oc1ccc2c(c1)S(=O)(=O)N=C(c1c(O)c3cc(F)ccc3n(CCC3CC3)c1=O)N2)C(=O)O`, the IC50 in the series with Hepatitis C virus [1] was 3740 nM; in the series with Hepatitis C virus [2], 22 nM.

Regarding `COC(=O)Cc1ccc2c(c1)S(=O)(=O)N=C(c1c(O)c3ccccc3n(CCC(C)C)c1=O)N2`, the half-inhibitory concentration (IC50) in the series with Hepatitis C virus [1] was 815 nM; in the series on Hepatitis C virus [2], 23 nM.

For the compound `COc1ccc2c(c1)S(=O)(=O)N=C(c1c(O)c3ccccc3n(CCC(C)C)c1=O)N2`, the IC50 in the series on Hepatitis C virus [1] worked out at 1390 nM; in the series with Hepatitis C virus [2] it was 55 nM.

`CC(C)CCn1c(=O)c(C2=NS(=O)(=O)c3cc([N+](=O)[O-])ccc3N2)c(O)c2ccccc21`: the IC50 with Hepatitis C virus [1] is > 20000 nM; in the series with Hepatitis C virus [2], 238 nM.
